The source of these data is ChEMBL document CHEMBL1125524, “Adenosine A1 antagonists. 2. Structure-activity relationships on diuretic activities and protective effects against acute renal failure” (J Med Chem, 1992).

The test system of assay [1] is Rattus norvegicus. In words: Ratio of urinary excretion value (Na+ concentration) in treated rats to that in control rats, at a peroral dose of 25 mg/Kg. It counts as functional, Urine.
Assay [2] has as its system Rattus norvegicus. In words: Urea nitrogen concentration measured after intraperitoneal administration of 1 mg/kg of compound to rats(vehicle 195.8+/-14.4). It counts as functional. The note with it: 1 mg/kg.
Assay [3] concerns Rattus norvegicus. In words: Effect on urinary excretion potassium and sodium after oral administration of 25 mg/kg to rats(potassium and sodium excretion in control rat is 0.180+/-0.024). The format is functional, Urine.
In assay [4] the target is Adenosine A2 receptor (Rattus norvegicus, UniProt P29276+P30543).
The subject of assay [5] is Rattus norvegicus. In words: Percent inhibition of Urea nitrogen by the compound given as ratio of UN value in treated to vehicle treated ones after intraperitoneal administration of 1 mg/kg of compound to rats(vehicle 195.8+/-14.4). It counts as functional. The note with it: 1 mg/kg.
Assay [6] has as its system Rattus norvegicus. In words: Ratio of urinary excretion value (urinary volume) in treated rats to that in control rats, at a peroral dose of 6.25 mg/Kg. It counts as functional, Urine.
Assay [7] concerns Rattus norvegicus. In words: Serum creatinine concentration measured after intraperitoneal administration of 1 mg/kg of compound to rats(vehicle 5.07+/-0.33). The format is functional. Conditions: 1 mg/kg.
Assay [8] concerns Rattus norvegicus. In words: Ratio of urinary excretion value (Na+ concentration) in treated rats to that in control rats, at a peroral dose of 6.25 mg/Kg. It counts as functional, Urine.
The test system of assay [9] is Rattus norvegicus. In words: Ratio of urinary excretion value (urinary volume) in treated rats to that in control rats, at a peroral dose of 25 mg/Kg. It counts as functional, Urine.
Assay [10] deals with Rattus norvegicus. In words: Oral diuretic activity was measured after oral administration of 25 mg/kg to rats(control volume is 1.00+/-0.09). It counts as functional, Urine.
For assay [11], the species on record is Rattus norvegicus. The note with it: dose 1 mg/kg, route intraperitoneal.
Assay [12] relates to Rattus norvegicus. In words: Ratio of sodium ion/potassium ion concentration in treated rats to that in control rats, at a peroral dose of 25 mg/Kg. The format is functional.
Assay [13] deals with T1, Adenosine receptor A1 (Cavia porcellus, UniProt P47745).
T1 sequence (P47745 whole entry): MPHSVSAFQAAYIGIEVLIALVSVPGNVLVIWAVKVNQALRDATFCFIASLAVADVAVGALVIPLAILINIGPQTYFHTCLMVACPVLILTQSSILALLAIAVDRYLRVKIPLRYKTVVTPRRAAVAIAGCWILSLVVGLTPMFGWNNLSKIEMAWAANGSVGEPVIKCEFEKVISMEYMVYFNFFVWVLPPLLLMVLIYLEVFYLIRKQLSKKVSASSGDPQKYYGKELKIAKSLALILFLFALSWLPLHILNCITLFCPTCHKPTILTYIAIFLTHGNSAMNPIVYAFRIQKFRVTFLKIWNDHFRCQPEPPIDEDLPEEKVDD
Description: Binding affinity against adenosine A1 receptor in guinea pig forebrain membranes using N6-[3H]cyclohexyladenosine as radioligand

The subject of assay [14] is Rattus norvegicus. In words: Percent inhibition of serum creatinine by the compound given as ratio of Cr value in treated to vehicle treated ones after intraperitoneal administration of 1 mg/kg of compound to rats(vehicle 3.75+/-0.34). It counts as functional. Conditions: ip.
Assay [15] deals with Rattus norvegicus. In words: Percent inhibition of serum creatinine by the compound given as ratio of Cr value in treated to vehicle treated ones after intraperitoneal administration of 10 mg/kg of compound to rats(vehicle 4.21+/-0.21). The format is functional. Conditions: ip.
Assay [16] has as its system Rattus norvegicus. In words: Serum creatinine concentration measured after intraperitoneal administration of 10 mg/kg of compound to rats(vehicle 4.21+/-0.21). It counts as functional.
The test system of assay [17] is Rattus norvegicus. In words: Percent inhibition of Urea nitrogen by the compound given as ratio of UN value in treated to vehicle treated ones after intraperitoneal administration of 1 mg/kg of compound to rats(vehicle 137.4+/-16.5). It counts as functional. Conditions: ip.
Assay [18] deals with Rattus norvegicus. In words: Serum creatinine concentration measured after intraperitoneal administration of 1 mg/kg of compound to rats(vehicle 3.75+/-0.34). It counts as functional.
In assay [19] the test system is Rattus norvegicus. In words: Oral diuretic activity was measured after oral administration of 25 mg/kg to rats(control volume is 0.74+/-0.07). The format is functional, Urine.
Assay [20] deals with Rattus norvegicus. In words: Effect on urinary excretion potassium and sodium after oral administration of 25 mg/kg to rats(potassium and sodium excretion in control rat is 0.172+/-0.015). It counts as functional, Urine.
Assay [21] relates to Rattus norvegicus. In words: Urea nitrogen concentration measured after intraperitoneal administration of 1 mg/kg of compound to rats(vehicle 137.4+/-16.5). The format is functional.
For assay [22], the system named is Rattus norvegicus. In words: Percent inhibition of Urea nitrogen by the compound given as ratio of UN value in treated to vehicle treated ones after intraperitoneal administration of 10 mg/kg of compound to rats(vehicle 144.1+/-6.1). Conditions: ip. It counts as functional.
Assay [23] deals with Rattus norvegicus. In words: Urea nitrogen concentration measured after intraperitoneal administration of 10 mg/kg of compound to rats(vehicle 144.1+/-6.1). The format is functional.

Bounds are passed on as bounds.

On to `CCCn1c(=O)c2nc(C3CC4CCC3C4)[nH]c2n(CCC)c1=O` (stereo in doubt; 20), for which the T/C is 2.06 in [1], 1.12 in assay [6], 1.27 in [8] and 2.13 in [9]. This compound registered a UN in assay [2] of 98.8 mg/dL. The Na in assay [3] came to 0.372 m equiv 6hr-1 100g-1. The compound also gave a Ki in assay [4] of 0.29 µM. The Inhibition amounted to 49% in assay [5] and 50% in assay [11]. The compound also gave a Cr in [7] of 2.54 mg/dL. Also, the Urine volume in [10] came to 2.13 ml 6hr-1 100g-1. The “Na+/K+” value in assay [12] was 1.63.

For the compound `CCCn1c(=O)c2c(nc(C3CCCC3)n2C)n(CCC)c1=O`, the Ki in assay [13] was 3.9 µM; in assay [4], over 10 µM. Besides, the inhibition in vivo at 1 mg/kg is 30% in [14] and 27% in assay [17]. Moreover, the values for the T/C in assay [1] and in assay [9] were 1.07 and 1.45, respectively. For the same compound, the figures for the inhibition in vivo at 10 mg/kg in assay [15] and in [22] were 26% and 25%, respectively. Besides, the Cr was 3.07 mg/dL in assay [16] and 2.62 mg/dL in [18]. The Urine volume in assay [19] is given as 1.07 ml 6hr-1 100g-1. The same compound gave a Na in [20] of 0.184 m equiv 6hr-1 100g-1. In addition, the figures for the UN in assay [21] and in assay [23] were 99.9 mg/dL and 107.9 mg/dL, respectively. The “Na+/K+” value in assay [12] is reported as 1.

Broadly, the Ki is a dissociation constant, usually derived from enzyme kinetics or from competition with a known ligand. Broadly, the Inhibition is the share of the control response that was lost under treatment. One may read the inhibition in vivo as the percentage by which the read-out fell short of the control.
